{"source": "patent US7217704B2", "about": "“LPA receptor agonists and antagonists and methods of use” (The University of Tennessee Research Foundation, priority 2003, dated 2007)", "key": {"LPA1 [1]": {"molecular_target": "T1, LPA1 (Homo sapiens, UniProt Q92633)", "T1 construct": "expressed in transfected cells", "T1 sequence (Q92633 whole entry)": "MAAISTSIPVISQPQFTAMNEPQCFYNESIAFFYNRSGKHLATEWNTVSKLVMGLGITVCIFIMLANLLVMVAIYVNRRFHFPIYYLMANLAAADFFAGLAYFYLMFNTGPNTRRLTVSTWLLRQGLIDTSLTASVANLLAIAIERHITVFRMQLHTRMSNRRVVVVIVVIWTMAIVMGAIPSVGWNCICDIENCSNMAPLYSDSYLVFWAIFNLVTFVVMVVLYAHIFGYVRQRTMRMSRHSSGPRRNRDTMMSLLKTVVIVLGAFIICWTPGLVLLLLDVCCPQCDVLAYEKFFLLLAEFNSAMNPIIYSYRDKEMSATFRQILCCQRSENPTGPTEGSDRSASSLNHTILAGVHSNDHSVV", "details": "RH7777 cells expressing LPA1; previously reported in Virag et al. (2003); cited from earlier work"}, "LPA2 [2]": {"molecular_target": "T2, LPA2 (Homo sapiens, UniProt Q9HBW0)", "T2 construct": "expressed in transfected cells", "T2 sequence (Q9HBW0 whole entry)": "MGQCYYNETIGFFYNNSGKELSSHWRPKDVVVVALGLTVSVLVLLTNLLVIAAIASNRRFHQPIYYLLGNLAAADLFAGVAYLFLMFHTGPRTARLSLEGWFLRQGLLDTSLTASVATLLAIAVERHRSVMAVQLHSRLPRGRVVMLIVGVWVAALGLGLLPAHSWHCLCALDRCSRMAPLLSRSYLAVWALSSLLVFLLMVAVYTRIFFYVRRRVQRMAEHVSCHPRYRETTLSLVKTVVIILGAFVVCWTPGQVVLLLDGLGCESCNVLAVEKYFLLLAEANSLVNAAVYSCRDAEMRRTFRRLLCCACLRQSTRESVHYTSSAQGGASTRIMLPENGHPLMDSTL", "details": "previously reported in Virag et al. (2003), cited from earlier work; for IC50: RH7777 cells expressing LPA2"}, "LPA3 [3]": {"molecular_target": "T3, LPA3 (Homo sapiens, UniProt Q9UBY5)", "T3 construct": "expressed in transfected cells", "T3 sequence (Q9UBY5 1-353)": "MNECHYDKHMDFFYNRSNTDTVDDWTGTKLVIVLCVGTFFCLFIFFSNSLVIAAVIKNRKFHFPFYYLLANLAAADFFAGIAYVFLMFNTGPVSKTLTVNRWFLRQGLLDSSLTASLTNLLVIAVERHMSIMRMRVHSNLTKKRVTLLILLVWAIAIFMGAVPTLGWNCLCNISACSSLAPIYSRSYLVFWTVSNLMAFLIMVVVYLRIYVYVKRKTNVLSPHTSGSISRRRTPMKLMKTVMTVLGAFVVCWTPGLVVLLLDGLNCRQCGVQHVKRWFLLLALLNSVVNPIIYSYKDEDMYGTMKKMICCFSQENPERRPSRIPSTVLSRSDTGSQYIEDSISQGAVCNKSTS", "details": "RH7777 cells expressing LPA3; previously reported in Virag et al. (2003); cited from earlier work"}, "LPA1 [4]": {"molecular_target": "T1, LPA1", "experiment": "Ca2+ transients (agonism / inhibition of LPA response) in RH7777 cells stably expressing LPA1", "type": "cell-based", "experimental": "(§1) The culture medium (DMEM containing 10% FBS) was then replaced with modified Krebs solution (120 mM NaCl, 5 mM KCl, 0.62 mM MgSO4, 1.8 mM CaCl2, 10 mM HEPES, 6 mM glucose, pH 7.4) and the cells were serum starved for 6–8 hours (12 h for PC-3 cells). Cells were loaded with Fura-2 AM for 35 minutes in modified Krebs medium. The Fura-2 was removed before loading the plate in the FlexStation instrument by replacing the medium once again with 100 μl modified Krebs medium/well. Plates were incubated for 4 minutes in the instrument to allow for warming to 37° C. Changes in intracellular Ca^2+ concentration were monitored by measuring the ratio of emitted light intensity at 520 nm in response to excitation by 340 nm and 380 nm wavelength lights, respectively. Each well was monitored for 80–120 seconds. […] Time courses were recorded using the SoftMax Pro software (Molecular Devices, Sunnyvale, Calif.). Ca^2+ transients were quantified automatically by calculating the difference between maximum and baseline ratio values for each well.\n(§2) Each FAP analog was tested for the ability to induce Ca^2+ transients in RH7777 cells transfected with LPA1-3 receptors (agonism), as well as the ability to inhibit LPAinduced Ca^2+ transients in the same cells (antagonism) (Table 3)."}, "LPA2 [5]": {"molecular_target": "T2, LPA2", "experiment": "Ca2+ transients (agonism / inhibition of LPA response) in RH7777 cells stably expressing LPA2", "type": "cell-based", "experimental": "as §1, §2"}, "LPA3 [6]": {"molecular_target": "T3, LPA3", "experiment": "Ca2+ transients (agonism / inhibition of LPA response) in RH7777 cells stably expressing LPA3", "type": "cell-based", "experimental": "as §1, §2"}, "PC-3 cells": {"tested_on": "PC-3 cells", "experiment": "Ca2+ transients in PC-3 cells endogenously expressing LPA1-3", "type": "cell-based, human", "experimental": "as §1\nWe tested the FAP analogs in PC-3 cells, which unlike the transfected RH7777 cells endogenously express LPA1-3 receptors."}, "IEC-6 cells": {"tested_on": "IEC-6 cells", "experiment": "Camptothecin-induced DNA fragmentation (apoptosis) in IEC-6 cells, ELISA", "type": "cell-based", "details": "Camptothecin 20 μM, LPA and FAP12 at 10 μM", "experimental": "The experimental procedure utilized was substantially the same as that reported in Deng et al. (2002) and Deng et al., (2003).\nBasically, IEC-6 cells were grown in DMEM medium supplemented with 5% fetal bovine serum, insulin (10 μg/ml), gentamycin sulfate (50 μg/ml), and incubated at 37° C. in a humidified 90% air–10% CO2 atmosphere. Medium was changed every other day. Sub-confluent cells were washed twice and replaced by DMEM without serum the night before experiments.\nDamage and IEC-6 cell apoptosis was induced via either γ-irradiation or chemotherapy. 20 Gy single dose of [^137Cs] source γ-irradiation was used in all experiments. […] In some experiments, LPA was added at different times before or after irradiation. Treatment with 20 μM camptothecin of IEC-6 cells induces DNA fragmentation as measured by the ELISA assay at 16 h after treatment. DNA fragmentation was quantified using the Cell Death Detection ELISA kit from Boehringer (Indianapolis, Ind.) according to the instructions of the manufacturer. Samples were run in triplicate. A duplicate of the sample was used to quantify protein concentration using the BCA kit from Pierce (Rockford, Ill.). DNA fragmentation was expressed as absorbance units per μg protein per minute."}, "γ-irradiated mice": {"tested_on": "γ-irradiated mice", "experiment": "Crypt survival in small intestine after whole body γ-irradiation", "type": "in vivo", "details": "200 μM into the stomach 2 h prior irradiation, crypts counted 3.5 days after irradiation", "experimental": "The experimental procedure utilized was substantially the same as that reported in Deng et al. (2002).\nThe whole body irradiation (WBI) protocol has been reviewed and approved by the ACUC Committee of the University of Tennessee Health Sciences Center. ICR strain male mice (Harlan Laboratories, body weight 30–33 g) on a 12 h light/dark cycle and otherwise maintained on a standard laboratory chow ad libitum were starved for 16 h prior to treatment. WBI was done with a 12 Gy or 15 Gy dose using Cs137 source at a dose rate of 1.9 Gy per minute. Groups of four mice received either 250 μl of 1 mM LPA complexed with 100 μM BSA dissolved in Hanks basal salt solution or the BSA vehicle alone 2 h prior to irradiation.\nFor detection of the apoptotic bodies, mice were euthanized with carbon dioxide inhalation 4 h after irradiation and the small intestine was dissected and fixed in neutral phosphate buffered isotonic 10% formalin. Four ˜3- to 4-mm long segments from the small intestine were embedded in paraffin, 5 μm thick sections were cut and stained with hematoxilin and eosin. The number of surviving crypts was counted 3.5 days after irradiation."}, "PPARγ": {"molecular_target": "T4, PPARγ (Homo sapiens, UniProt P37231)", "T4 sequence (P37231 1-505)": "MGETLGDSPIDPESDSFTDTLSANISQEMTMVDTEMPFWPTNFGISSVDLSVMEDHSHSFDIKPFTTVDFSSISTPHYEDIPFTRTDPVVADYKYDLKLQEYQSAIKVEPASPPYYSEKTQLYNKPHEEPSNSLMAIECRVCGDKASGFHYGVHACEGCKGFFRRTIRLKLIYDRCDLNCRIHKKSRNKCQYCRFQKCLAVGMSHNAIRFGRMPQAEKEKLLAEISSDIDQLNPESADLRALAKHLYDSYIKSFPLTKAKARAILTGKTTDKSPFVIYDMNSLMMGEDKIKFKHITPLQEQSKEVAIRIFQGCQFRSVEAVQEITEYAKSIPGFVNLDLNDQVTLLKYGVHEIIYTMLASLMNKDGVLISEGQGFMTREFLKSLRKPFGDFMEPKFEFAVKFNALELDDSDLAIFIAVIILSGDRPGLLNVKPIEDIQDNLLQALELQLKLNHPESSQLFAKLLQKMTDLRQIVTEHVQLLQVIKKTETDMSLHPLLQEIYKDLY", "experiment": "PPARγ activation in CV1 cells, PPRE-Acox-Rluc reporter gene assay", "details": "10 μM test compound, 20 h", "description": "Comparing the effects with the Rosiglitazone, a known PPARγ agonist, CV1 cells were treated with 1% DMSO or 10 μM of test compound dissolved in DMSO for 20 h. Luciferase and β-galactosidase activities (mean±SEM) were measured in the cell lysate (n=4). *P<0.05 and **P<0.01, significant differences over vehicle control.\nThe assay of PPARγ activation in CV1 cells was run as reported in Zhang et al. Briefly, CV-1 cells were plated in 96-well plates (5×10^3 cells per well) in Dulbecco's modified Eagle's medium supplemented with 10% fetal bovine serum. […] Samples were run in quadruplicate and the mean±standard errors were calculated. Data are representative of at least two independent transfections. Student's t-test was used for null hypothesis testing and P<0.05 was considered transfection, cells were treated with 1% FBS supplemented OptiMEMI (Invitrogen) containing DMSO or 10 μM test compound dissolved in DMSO for 20 h. Luciferase and β-galactosidase activities were measured with the Steady-Glo® Luciferase Assay significant (in the figures P<0.05 is denoted by * and P<0.01 is **)."}}, "note": "“Also recorded” adds a separate entry of the source. Read-outs that look alike come from different tables or passages of the source."}
{"smiles": "CCCCCCCCCCOP(=O)(O)O", "note": "[Compound 2a]", "values": [{"measurement": "EC50", "setting": "LPA1 [1]", "result": "> 30", "unit": "µM"}, {"measurement": "IC50", "setting": "LPA1 [1]", "result": "> 30", "unit": "µM"}, {"measurement": "IC50", "setting": "LPA2 [2]", "result": "> 30", "unit": "µM"}, {"measurement": "EC50", "setting": "LPA3 [3]", "result": "> 30", "unit": "µM"}]}
{"smiles": "CCCCCCCCC=CCCCCCCCCOP(O)(O)=S", "note": "[Compound 8g, Thiophosphoric acid O-octadec-9-enyl ester]", "values": [{"measurement": "EC50", "setting": "LPA1 [4]", "result": 0.193, "unit": "µM"}, {"measurement": "IC50", "setting": "LPA1 [4]", "result": "> 30", "unit": "µM"}, {"measurement": "effect at LPA1 in words", "setting": "LPA1 [4]; Ca2+ transients, RH7777 cells expressing LPA1", "result": "agonist"}, {"measurement": "Emax", "setting": "LPA1 [4]; RH7777, read-out: LPA1 (Emax)", "result": 80, "unit": "%"}, {"measurement": "LPA1 (Emax)", "setting": "LPA1 [4]; maximal efficacy of the drug/maximal efficacy of LPA 18:1", "result": 80, "unit": "%"}, {"measurement": "EC50", "setting": "LPA2 [5]", "result": 0.244, "unit": "µM"}, {"measurement": "IC50", "setting": "LPA2 [5]", "result": "> 30", "unit": "µM"}, {"measurement": "effect at LPA2 in words", "setting": "LPA2 [5]; Ca2+ transients, RH7777 cells expressing LPA2", "result": "agonist"}, {"measurement": "EC50", "setting": "LPA3 [6]", "result": 0.546, "unit": "µM"}, {"measurement": "IC50", "setting": "LPA3 [6]", "result": "> 30", "unit": "µM"}, {"measurement": "effect at LPA3 in words", "setting": "LPA3 [6]; Ca2+ transients, RH7777 cells expressing LPA3", "result": "agonist"}, {"measurement": "effect in PC-3 cells in words", "setting": "PC-3 cells; Ca2+ transients, PC-3 cells", "result": "no inhibition of LPA response"}, {"measurement": "Emax", "setting": "PC-3 cells; Homo sapiens, PC-3, read-out: PC-3 (Emax)", "result": 30, "unit": "%"}, {"measurement": "inhibition of Camptothecin-induced DNA fragmentation in words", "setting": "IEC-6 cells", "result": "comparable to that of LPA but supersedes it at concentrations above 3 μM; also recorded: dose-dependently inhibit DNA fragmentation"}, {"measurement": "crypt survival in words", "setting": "γ-irradiated mice", "result": "enhances crypt survival"}, {"measurement": "crypt survival in words", "setting": "γ-irradiated mice; listed as FAP 18:1 d9", "result": "dose-dependent enhancement of crypt survival"}, {"measurement": "crypt survival in words", "setting": "γ-irradiated mice; listed as FAP 18:1d9", "result": "significantly (P>0.01) enhanced crypt survival; also recorded: present in the jejunum and ileum and exceeded that of LPA; also recorded: dose-dependent crypt survival in the ileum and jejunum"}]}
{"smiles": "CCCCCCCCCCCCOP(=O)(O)O", "note": "[Compound 2b]", "values": [{"measurement": "inhibition of Camptothecin-induced DNA fragmentation in words", "setting": "IEC-6 cells", "result": "inhibited"}, {"measurement": "EC50", "setting": "LPA1 [1]", "result": "> 30", "unit": "µM"}, {"measurement": "IC50", "setting": "LPA2 [2]", "result": "> 30", "unit": "µM"}, {"measurement": "LPA2 (Emax)", "setting": "LPA2 [2]; relative to LPA 18:1", "result": 50, "unit": "%"}, {"measurement": "EC50", "setting": "LPA3 [3]", "result": "> 30", "unit": "µM"}, {"measurement": "IC50", "setting": "LPA3 [3]", "result": 0.128, "unit": "µM"}, {"measurement": "Ki", "setting": "LPA3 [3]", "result": 0.061, "unit": "µM"}]}
{"smiles": "CCCCCCCC/C=C\\CCCCCCCC(=O)OC[C@@H](COP(O)(O)=S)OC", "note": "[OMPT]", "values": [{"measurement": "PPARγ activation (PPRE-Acox-Rluc reporter) in words", "setting": "PPARγ", "result": "can activate PPRE-Acox-Rluc reporter"}]}
